Results as given in ChEMBL document CHEMBL1201862, “PubChem BioAssay data set” (2004).
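Protocol summary: plate cells (96-well), add compound at 5 concentrations, incubate 48 h, interpolate endpoints linearly. The concentration for 50% growth inhibition is given as GI50.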 The source made the active and inactive calls. Cut-off read from the data, not from the text of the source: active = GI50 up to about 1.1 µM and inactive = higher.

Legend:
Assay in all cases: NCI tumour cell line growth inhibition, 48 h
CCRF-CEM = test system: CCRF-CEM
SK-MEL-2 = test system: SK-MEL-2
SF-268 = test system: SF-268
OVCAR-5 = test system: OVCAR-5
SF-539 = test system: SF-539
786-0 = test system: 786-0
LOX IMVI = test system: LOX IMVI
DU-145 = test system: DU-145
SF-295 = test system: SF-295
SNB-75 = test system: SNB-75
HL-60 = test system: HL-60
UACC-62 = test system: UACC-62
TK-10 = test system: TK-10
CAKI-1 = test system: CAKI-1
ACHN = test system: ACHN
EKVX = test system: EKVX
A549 = test system: A549
SK-MEL-5 = test system: SK-MEL-5
Hs-578T = test system: Hs-578T
UACC-257 = test system: UACC-257
A498 = test system: A498
SN12C = test system: SN12C
BT-549 = test system: BT-549
MOLT-4 = test system: MOLT-4
U-251 = test system: U-251
HOP-92 = test system: HOP-92
OVCAR-4 = test system: OVCAR-4
K562 = test system: K562
RPMI-8226 = test system: RPMI-8226
COLO 205 = test system: COLO 205
IGROV-1 = test system: IGROV-1
MCF7 = test system: MCF7
NCI-H23 = test system: NCI-H23
Malme-3M = test system: Malme-3M
SR = test system: SR
UO-31 = test system: UO-31
NCI-H522 = test system: NCI-H522
PC-3 = test system: PC-3
NCI-H226 = test system: NCI-H226
T47D = test system: T47D
HCT-15 = test system: HCT-15
HT-29 = test system: HT-29
RXF 393 = test system: RXF 393
MDA-N = test system: MDA-N
M14 = test system: M14
KM12 = test system: KM12
NCI/ADR-RES = test system: NCI/ADR-RES
OVCAR-3 = test system: OVCAR-3
NCI-H460 = test system: NCI-H460
SK-OV-3 = test system: SK-OV-3
HCT-116 = test system: HCT-116
MDA-MB-231 = test system: MDA-MB-231
HOP-62 = test system: HOP-62
SW-620 = test system: SW-620
SNB-19 = test system: SNB-19
SK-MEL-28 = test system: SK-MEL-28
OVCAR-8 = test system: OVCAR-8
MDA-MB-435 = test system: MDA-MB-435

Cn1c(=S)c2nc(SCCN3C(=O)c4ccccc4C3=O)[nH]c2n(C)c1=O
GI50 (CCRF-CEM): 17.3 µM (inactive)
GI50 (SK-MEL-2): > 100 µM (inactive)
GI50 (SF-268): > 100 µM (inactive)
GI50 (OVCAR-5): > 100 µM (inactive)
GI50 (SF-539): > 100 µM (inactive)
GI50 (786-0): > 100 µM (inactive)
GI50 (LOX IMVI): > 100 µM (inactive)
GI50 (DU-145): > 100 µM (inactive)
GI50 (SF-295): > 100 µM (inactive)
GI50 (SNB-75): > 100 µM (inactive)
GI50 (HL-60): > 100 µM (inactive)
GI50 (UACC-62): > 100 µM (inactive)
GI50 (TK-10): > 100 µM (inactive)
GI50 (CAKI-1): > 100 µM (inactive)
GI50 (ACHN): > 100 µM (inactive)
GI50 (EKVX): > 100 µM (inactive)
GI50 (A549): > 100 µM (inactive)
GI50 (SK-MEL-5): > 100 µM (inactive)
GI50 (Hs-578T): > 100 µM (inactive)
GI50 (UACC-257): > 100 µM (inactive)
GI50 (A498): > 100 µM (inactive)
GI50 (SN12C): > 100 µM (inactive)
GI50 (BT-549): > 100 µM (inactive)
GI50 (MOLT-4): 88.3 µM (inactive)
GI50 (U-251): > 100 µM (inactive)
GI50 (HOP-92): > 100 µM (inactive)
GI50 (OVCAR-4): > 100 µM (inactive)
GI50 (K562): > 100 µM (inactive)
GI50 (RPMI-8226): 25.5 µM (inactive)
GI50 (COLO 205): > 100 µM (inactive)
GI50 (IGROV-1): 30.1 µM (inactive)
GI50 (MCF7): 32.7 µM (inactive)
GI50 (NCI-H23): > 100 µM (inactive)
GI50 (Malme-3M): > 100 µM (inactive)
GI50 (SR): 3.75 µM (inactive)
GI50 (UO-31): > 100 µM (inactive)
GI50 (NCI-H522): 5.27 µM (inactive)
GI50 (PC-3): > 100 µM (inactive)
GI50 (NCI-H226): > 100 µM (inactive)
GI50 (T47D): > 100 µM (inactive)
GI50 (HCT-15): > 100 µM
GI50 (HT-29): > 100 µM (inactive)
GI50 (RXF 393): > 100 µM (inactive)
GI50 (MDA-N): > 100 µM (inactive)
GI50 (M14): > 100 µM (inactive)
GI50 (KM12): > 100 µM (inactive)
GI50 (NCI/ADR-RES): > 100 µM (inactive)
GI50 (OVCAR-3): > 100 µM (inactive)
GI50 (NCI-H460): 92.7 µM (inactive)
GI50 (SK-OV-3): > 100 µM (inactive)
GI50 (HCT-116): > 100 µM (inactive)
GI50 (MDA-MB-231): > 100 µM (inactive)
GI50 (HOP-62): > 100 µM (inactive)
GI50 (SW-620): > 100 µM (inactive)
GI50 (SNB-19): > 100 µM (inactive)
GI50 (SK-MEL-28): > 100 µM (inactive)
GI50 (OVCAR-8): > 100 µM (inactive)
GI50 (MDA-MB-435): > 100 µM (inactive)

Nc1nc(Cl)cc(NCC2(CO)CCCCC2)n1
GI50 (CCRF-CEM): > 100 µM (inactive)
GI50 (SK-MEL-2): > 100 µM (inactive)
GI50 (SF-268): > 100 µM (inactive)
GI50 (OVCAR-5): > 100 µM (inactive)
GI50 (SF-539): > 100 µM (inactive)
GI50 (786-0): > 100 µM (inactive)
GI50 (LOX IMVI): 49.3 µM (inactive)
GI50 (DU-145): > 100 µM (inactive)
GI50 (SF-295): > 100 µM (inactive)
GI50 (SNB-75): > 100 µM (inactive)
GI50 (HL-60): > 100 µM (inactive)
GI50 (UACC-62): > 100 µM (inactive)
GI50 (TK-10): > 100 µM (inactive)
GI50 (CAKI-1): > 100 µM (inactive)
GI50 (ACHN): > 100 µM (inactive)
GI50 (EKVX): 67 µM (inactive)
GI50 (A549): > 100 µM (inactive)
GI50 (SK-MEL-5): 44 µM (inactive)
GI50 (Hs-578T): > 100 µM (inactive)
GI50 (UACC-257): 64.7 µM (inactive)
GI50 (A498): 70.8 µM (inactive)
GI50 (SN12C): 81.1 µM (inactive)
GI50 (BT-549): > 100 µM (inactive)
GI50 (MOLT-4): 59.4 µM (inactive)
GI50 (U-251): > 100 µM (inactive)
GI50 (HOP-92): 56.9 µM (inactive)
GI50 (OVCAR-4): 80.7 µM (inactive)
GI50 (K562): 94 µM (inactive)
GI50 (RPMI-8226): 97.5 µM (inactive)
GI50 (COLO 205): > 100 µM (inactive)
GI50 (IGROV-1): > 100 µM (inactive)
GI50 (MCF7): 97.9 µM (inactive)
GI50 (NCI-H23): 48.9 µM (inactive)
GI50 (Malme-3M): > 100 µM (inactive)
GI50 (SR): 68.2 µM (inactive)
GI50 (UO-31): > 100 µM (inactive)
GI50 (NCI-H522): > 100 µM (inactive)
GI50 (PC-3): 83.4 µM (inactive)
GI50 (NCI-H226): > 100 µM (inactive)
GI50 (T47D): 38.5 µM (inactive)
GI50 (HCT-15): > 100 µM
GI50 (HT-29): > 100 µM (inactive)
GI50 (RXF 393): > 100 µM (inactive)
GI50 (MDA-N): > 100 µM (inactive)
GI50 (M14): > 100 µM (inactive)
GI50 (KM12): > 100 µM (inactive)
GI50 (NCI/ADR-RES): 39.7 µM (inactive)
GI50 (OVCAR-3): > 100 µM (inactive)
GI50 (NCI-H460): > 100 µM (inactive)
GI50 (SK-OV-3): > 100 µM (inactive)
GI50 (HCT-116): > 100 µM (inactive)
GI50 (MDA-MB-231): > 100 µM (inactive)
GI50 (HOP-62): > 100 µM (inactive)
GI50 (SW-620): > 100 µM (inactive)
GI50 (SNB-19): > 100 µM (inactive)
GI50 (SK-MEL-28): > 100 µM (inactive)
GI50 (OVCAR-8): > 100 µM (inactive)
GI50 (MDA-MB-435): > 100 µM (inactive)
